Source: patent US8450522B2, “Conformationally constrained carboxylic acid derivatives useful for treating metabolic disorders” (Amgen Inc., priority 2008, dated 2013)

Columns and labels:
GPR40 [1] = target: T1, GPR40 (Homo sapiens, UniProt O14842); assay: Cell-based aequorin assay (CHO cells stably transfected with GPR40 and aequorin); set-up: expressed in transfected cells; conditions: activation of human GPR40, CHO cells, 0.01% HSA
Procedure: Briefly, the Aequorin assays were performed on doubly stable CHO cells expressing GPR40 and Aequorin DNA. […] The luminescence was recorded over a period of 20 seconds with a Microlumat luminometer (Berthold).
Cell-based aequorin assays were employed to characterize the modulatory activity of compounds on the GPR40 signaling pathway. In an exemplary assay, CHO cells were stably transfected with both GPR40 and Aequorin (Euroscreen). Cells were detached from the tissue culture dish with 2 mL of trypsin (0.25% (w/v)). Trypsinization was halted with 28 mL of Hanks Buffered Salt Solution containing 20 mM Hepes (H/HBSS) and 0.01% fatty acid-free human serum albumin (HSA). Coelantrazine is added to 1 ug/mL, and the cells were incubated for 2 hours at room temperature. Compounds were dissolved in DMSO for preparation of 10 mM stock solutions. Compounds were diluted in H/HBSS containing 0.01% HSA. Serial dilutions of the test compounds were prepared to determine dose response.
Aequorin luminescence measurements were made using an EG&G Berthold 96-well luminometer, and the response was measured over a 20 second interval after cells and compounds were mixed. The maximum relative light units was plotted to determine dose response. The EC50 (effective concentration to reach 50% maximal response) was determined from the dose response plot.

GPR40 [2] = target: T1, GPR40; assay: Inositol phosphate accumulation assay (A9 cell line stably transfected with GPR40); type: cell-based; set-up: expressed in transfected cells; conditions: human GPR40, A9_GPR40 cells, 1 hour at 37° C.; read-out: IP3 EC50 (inositol phosphate assay data)
Procedure: An A9 cell line stably transfected with GPR40 (A9_GPR40) was used in IP accumulation assays. A9_GPR40 cells were plated in 96-well plates containing 20,000 cells/well in DMEM containing 10% FBS. After the cells attached to the well surface, the media was replaced with inositol free DMEM containing 10% dialyzed FBS and 1 μCi, mL ^3H-inositol and incubated for 16 hours. Compounds were diluted in HBSS/10 mM LiCl containing a desired amount of HSA and added directly to cells. Following 1 hour incubation at 37° C., the media was replaced with 100 μl of 20 mM formic acid to quench the reaction. 50 μL of the extract was then added to 100 μL of SPA beads, incubated overnight, and measured on a TopCount the following day.

T1 sequence (O14842 whole entry): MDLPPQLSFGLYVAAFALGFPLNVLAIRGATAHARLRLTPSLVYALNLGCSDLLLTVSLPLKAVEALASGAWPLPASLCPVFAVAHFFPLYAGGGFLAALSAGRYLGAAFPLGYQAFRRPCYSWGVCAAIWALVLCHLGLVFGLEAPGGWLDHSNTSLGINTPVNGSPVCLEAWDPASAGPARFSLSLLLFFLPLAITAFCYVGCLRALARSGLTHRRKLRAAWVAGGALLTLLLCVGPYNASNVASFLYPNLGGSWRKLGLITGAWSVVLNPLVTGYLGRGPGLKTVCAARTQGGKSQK

Structure (SMILES) | EC50 (GPR40 [1]) | EC50 (GPR40 [2])
COc1ccc(F)c(-c2ccc(COc3ccc4c(c3)[C@@H](CC(=O)O)CCC4)cc2C(C)(C)C)c1 (single isomer, unassigned) [Example 6, (R)-2-(7-(3-t-Butyl-4-(2-fluoro-5-methoxyphenyl)benzyloxy)1,2,3,4-tetrahydronaphthalen-1-yl)acetic acid or (S)-2-(7-(3-t-butyl-4-(2-fluoro-5-methoxyphenyl)benzyloxy)1,2,3,4-tetrahydronaphthalen-1-yl)acetic acid] | 0.1 to 1 µM | 0.1 to 1 µM
COc1cc(-c2ccc(COc3ccc4c(c3)[C@@](C)(CC(=O)O)CC4)cc2[C@@H]2CCCC2(C)C)c(F)cn1 (single isomer, unassigned) [Example 20, {(R)-6-[3-((S)-2,2-Dimethyl-cyclopentyl)-4-(5-fluoro-2-methoxy-pyridin-4-yl)-benzyloxy]-1-methyl-indan-1-yl}-acetic acid or diastereomer thereof] | 0.1 to 1 µM | < 0.01 µM
COc1ccc(F)c(-c2ccc(COc3ccc4c(c3)[C@@H](CC(=O)O)C4)cc2C(C)(C)C)c1 (single isomer, unassigned) [Example 4, ((7R)-4-(((2-(1,1-Dimethylethyl)-2′-fluoro-5′-(methyloxy)-1,1′-biphenyl-4-yl)methyl)oxy)bicyclo[4.2.0]octa-1,3,5-trien-7-yl)acetic acid or ((7R)-4-(((2-(1,1-dimethylethyl)-2′-fluoro-5′-(methyloxy)-1,1′-biphenyl-4-yl)methyl)oxy)bicyclo[4.2.0]octa-1,3,5-trien-7-yl)acetic acid] | > 10 µM | –
COc1cc(-c2ccc(COc3ccc4c(c3)[C@](C)(CC(=O)O)CCC4)cc2[C@H]2CCCC2(C)C)c(F)cn1 (single isomer, unassigned) [Example 49] | 0.1 to 1 µM | –
COc1ccc(F)c(-c2ccc(COc3ccc4c(c3)[C@H](CC(=O)O)C4)cc2C(C)(C)C)c1 (single isomer, unassigned) [Example 3, (R)-2-(5-(3-t-Butyl-4-(2-fluoro-5-methoxyphenyl)benzyloxy)-1,2-dihydrocyclobutabenzen-1-yl)acetic acid or (S)-2-(5-(3-t-butyl-4-(2-fluoro-5-methoxyphenyl)benzyloxy)-1,2-dihydrocyclobutabenzen-1-yl)acetic acid] | 1 to 10 µM | –
COc1ccc(F)c(-c2ccc(COc3ccc4c(c3)CC[C@H]4CC(=O)O)cc2C(C)(C)C)c1 (single isomer, unassigned) [Example 32, ((1S)-5-((2′-Fluoro-5′-methoxy-2-(2-methyl-2-propanyl)-4-biphenylyl)methoxy)-2,3-dihydro-1H-inden-1-yl)acetic acid or ((1R)-5-((2′-fluoro-5′-methoxy-2-(2-methyl-2-propanyl)-4-biphenylyl)methoxy)-2,3-dihydro-1H-inden-1-yl)acetic acid] | 1 to 10 µM | –
COc1ccc(F)c(-c2ccc(COc3ccc4c(c3)C[C@H]4CC(=O)O)cc2C(C)(C)C)c1 (single isomer, unassigned) [Example 30, ((7S)-3-((2′-Fluoro-5′-methoxy-2-(2-methyl-2-propanyl)-4-biphenylyl)methoxy)bicycle[4.2.0]octa-1,3,5-trien-7-yl)acetic acid or ((7R)-3-((2′-fluoro-5′-methoxy-2-(2-methyl-2-propanyl)-4-biphenylyl)methoxy)bicycle[4.2.0]octa-1,3,5-trien-7-yl)acetic acid] | 1 to 10 µM | –
COc1ccc(F)c(-c2ccc(COc3ccc4c(c3)[C@H](CC(=O)O)C(C)(C)C4)cc2C(C)(C)C)c1 (single isomer, unassigned) [Example 10, ((1R)-6-(((2-(1,1-Dimethylethyl)-2′-fluoro-5′-(methyloxy)-1,1′-biphenyl-4-yl)methyl)oxy)-2,2-dimethyl-2,3-dihydro-1H-inden-1-yl)acetic acid or ((1S)-6-(((2-(1,1-dimethylethyl)-2′-fluoro-5′-(methyloxy)-1,1′-biphenyl-4-yl)methyl)oxy)-2,2-dimethyl-2,3-dihydro-1H-inden-1-yl)acetic acid] | 1 to 10 µM | –
COc1ccc(F)c(-c2ccc(COc3ccc4c(c3)[C@@H](CC(=O)O)C(C)(C)C4)cc2C2=CCCC2(C)C)c1 (single isomer, unassigned) [Example 9, ((1S)-6-(((2-(5,5-Dimethyl-1-cyclopenten-1-yl)-2′-fluoro-5′-(methyloxy)-1,1′-biphenyl-4-yl)methyl)oxy)-2,2-dimethyl-2,3-dihydro-1H-inden-1-yl)acetic acid or ((1R)-6-(((2-(5,5-dimethyl-1-cyclopenten-1-yl)-2′-fluoro-5′-(methyloxy)-1,1′-biphenyl-4-yl)methyl)oxy)-2,2-dimethyl-2,3-dihydro-1H-inden-1-yl)acetic acid] | 0.1 to 1 µM | –
COc1ccc(F)c(-c2ccc(COc3ccc4c(c3)[C@@H](C(C)(C)C(=O)O)CC4)cc2C2=CCCC2(C)C)c1 (single isomer, unassigned) [Example 11, 2-((1S)-6-(((2-(5,5-Dimethyl-1-cyclopenten-1-yl)-2′-fluoro-5′-(methyloxy)-1,1′-biphenyl-4-yl)methyl)oxy)-2,3-dihydro-1H-inden-1-yl)-2-methylpropanoic acid or 2-((1R)-6-(((2-(5,5-dimethyl-1-cyclopenten-1-yl)-2′-fluoro-5′-(methyloxy)-1,1′-biphenyl-4-yl)methyl)oxy)-2,3-dihydro-1H-inden-1-yl)-2-methylpropanoic acid] | 0.1 to 1 µM | –

Now from value to compound:

EC50 (GPR40 [1]) | EC50 (GPR40 [2]) | Structure (SMILES)
0.1 to 1 µM | 0.01 to 0.1 µM | COc1cc(-c2ccc(COc3ccc4c(c3)[C@@](C)(CC(=O)O)CCC4)cc2[C@H]2CCCC2(C)C)c(F)cn1 (single isomer, unassigned) [Example 48]
0.1 to 1 µM | 0.01 to 0.1 µM | COc1ccc(F)c(-c2ccc(COc3ccc4c(c3)[C@@H](CC(=O)O)CC4)cc2[C@H]2CCCC2(C)C)c1 (single isomer, unassigned) [Example 22]
0.1 to 1 µM | 0.01 to 0.1 µM | COc1ccc(F)c(-c2ccc(COc3ccc4c(c3)[C@@H](CC(=O)O)CC4)cc2[C@@H](OC)C(C)(C)C)c1 (single isomer, unassigned) [Example 24]
0.1 to 1 µM | 0.01 to 0.1 µM | COc1cc(-c2ccc(COc3ccc4c(c3)[C@@H](CC(=O)O)CC4)cc2[C@H]2CCCC2(C)C)c(F)cn1 (single isomer, unassigned) [Example 23]
0.01 to 0.1 µM | < 0.01 µM | COc1ccc(F)c(-c2cc(F)c(COc3ccc4c(c3)[C@@](C)(CC(=O)O)CC4)cc2[C@H]2CCCC2(C)C)c1 (single isomer, unassigned) [Example 33, ((1R)-6-((2-((1S)-2,2-Dimethylcyclopentyl)-2′,5-difluoro-5′-methoxy-4-biphenylyl)methoxy)-1-methyl-2,3-dihydro-1H-inden-1-yl)acetic acid or ((1R)-6-((2-((1R)-2,2-dimethylcyclopentyl)-2′,5-difluoro-5′-methoxy-4-biphenylyl)methoxy)-1-methyl-2,3-dihydro-1H-inden-1-yl)acetic acid]
1 to 10 µM | – | CCC(C)(C)[C@H](OC)c1cc(COc2ccc3c(c2)[C@@H]([C@@H](C)C(=O)O)CC3)ccc1-c1cc(OC)ccc1F (single isomer, unassigned) [Example 27, 2-((1R)-6-(((2-((1R)-2,2-Dimethyl-1-(methyloxy)butyl)-2′-fluoro-5′-(methyloxy)-1,1′-biphenyl-4-yl)methyl)oxy)-2,3-dihydro-1H-inden-1-yl)propanoic acid (27) or stereoisomer thereof]
1 to 10 µM | – | COc1ccc(F)c(-c2ccc(COc3ccc4c(c3)CC[C@@H]4CC(=O)O)cc2C(C)(C)C)c1 (single isomer, unassigned) [Example 31, ((1S)-5-((2′-Fluoro-5′-methoxy-2-(2-methyl-2-propanyl)-4-biphenylyl)methoxy)-2,3-dihydro-1H-inden-1-yl)acetic acid or ((1R)-5-((2′-fluoro-5′-methoxy-2-(2-methyl-2-propanyl)-4-biphenylyl)methoxy)-2,3-dihydro-1H-inden-1-yl)acetic acid]
1 to 10 µM | – | COc1ccc(F)c(-c2ccc(COc3ccc4c(c3)C[C@@H]4CC(=O)O)cc2C(C)(C)C)c1 (single isomer, unassigned) [Example 29, ((7S)-3-((2′-Fluoro-5′-methoxy-2-(2-methyl-2-propanyl)-4-biphenylyl)methoxy)bicycle[4.2.0]octa-1,3,5-trien-7-yl)acetic acid or ((7R)-3-((2′-fluoro-5′-methoxy-2-(2-methyl-2-propanyl)-4-biphenylyl)methoxy)bicycle[4.2.0]octa-1,3,5-trien-7-yl)acetic acid]
